According to US10259810B2, “N-sulfonylated pyrazolo[3,4-b]pyridin-6-carboxamides and method of use” (AbbVie S.à.r.l., priority 2015, dated 2019):

What was measured:
ΔF508-CFTR [1] = target: T1, ΔF508-CFTR (Homo sapiens, UniProt P13569, DEL508-508); experiment: CFTR cell surface levels using HRP-tagged ΔF508-CFTR expressing CFBE cells, in the presence of a co-corrector; type: cell-based; conditions: HRP-tagged ΔF508-CFTR CFBE cells, in the presence of 3 μM co-corrector; for EC50: read-out: EC50
T1 construct: host or cells: CFBE41o-, doxycycline-inducible
T1 sequence (P13569 with tags, fused parts or gaps DEL508-508): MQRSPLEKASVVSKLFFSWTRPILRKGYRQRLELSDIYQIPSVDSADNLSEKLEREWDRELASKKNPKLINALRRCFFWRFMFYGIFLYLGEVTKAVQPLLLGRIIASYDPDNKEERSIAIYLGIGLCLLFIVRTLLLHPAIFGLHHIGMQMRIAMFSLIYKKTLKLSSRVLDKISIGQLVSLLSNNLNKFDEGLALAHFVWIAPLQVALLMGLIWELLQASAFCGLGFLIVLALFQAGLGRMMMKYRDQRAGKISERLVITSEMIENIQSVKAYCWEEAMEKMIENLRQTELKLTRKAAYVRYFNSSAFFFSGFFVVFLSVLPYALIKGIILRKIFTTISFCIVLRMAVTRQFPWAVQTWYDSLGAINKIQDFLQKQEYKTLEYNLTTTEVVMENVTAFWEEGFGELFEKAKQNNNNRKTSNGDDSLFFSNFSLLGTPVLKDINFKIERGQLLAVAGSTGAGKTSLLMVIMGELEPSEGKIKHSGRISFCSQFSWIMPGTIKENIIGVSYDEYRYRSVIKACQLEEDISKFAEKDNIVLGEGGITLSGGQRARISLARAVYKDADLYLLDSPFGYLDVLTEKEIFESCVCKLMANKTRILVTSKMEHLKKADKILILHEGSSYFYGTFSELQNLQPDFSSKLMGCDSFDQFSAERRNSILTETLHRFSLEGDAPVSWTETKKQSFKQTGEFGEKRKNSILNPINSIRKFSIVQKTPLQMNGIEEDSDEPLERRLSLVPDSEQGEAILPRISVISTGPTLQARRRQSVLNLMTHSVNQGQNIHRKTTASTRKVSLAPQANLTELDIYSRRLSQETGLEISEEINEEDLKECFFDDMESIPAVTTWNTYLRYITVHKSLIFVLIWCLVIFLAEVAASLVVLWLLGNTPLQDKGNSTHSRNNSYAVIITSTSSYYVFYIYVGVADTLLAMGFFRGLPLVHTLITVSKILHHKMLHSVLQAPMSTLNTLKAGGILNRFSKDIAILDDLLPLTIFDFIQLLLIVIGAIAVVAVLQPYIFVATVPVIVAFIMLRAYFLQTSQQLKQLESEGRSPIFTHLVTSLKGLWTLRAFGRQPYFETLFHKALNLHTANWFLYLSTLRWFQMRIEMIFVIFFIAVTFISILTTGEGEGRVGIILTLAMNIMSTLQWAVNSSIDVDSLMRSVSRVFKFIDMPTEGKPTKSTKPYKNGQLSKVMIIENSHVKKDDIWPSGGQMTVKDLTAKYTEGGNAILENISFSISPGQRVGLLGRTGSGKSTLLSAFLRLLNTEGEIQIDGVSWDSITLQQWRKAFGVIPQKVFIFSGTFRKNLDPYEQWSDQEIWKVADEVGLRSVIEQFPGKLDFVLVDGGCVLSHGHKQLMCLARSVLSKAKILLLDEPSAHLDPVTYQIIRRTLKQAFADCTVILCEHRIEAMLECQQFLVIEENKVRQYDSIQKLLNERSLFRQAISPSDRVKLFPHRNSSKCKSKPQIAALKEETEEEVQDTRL
In short: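 Chemiluminescent read-out of surface HRP (15 min, dark) after PBS washes. Activity is normalized as 100×(sample−DMSO)/(3 μM co-corrector alone−DMSO).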

ΔF508-CFTR [2] = target: T1, ΔF508-CFTR; experiment: CFTR cell surface levels using HRP-tagged ΔF508-CFTR expressing CFBE cells, intrinsic corrector capacity; type: cell-based; set-up: % Activation: concentration or dose not given beside the values; conditions: HRP-tagged ΔF508-CFTR expressing CFBE41o- cells, compound alone (intrinsic corrector capacity), 20 hours at 33° C.; for EC50: read-out: EC50
In short: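 Read-out: chemiluminescent HRP activity of ECL4-HRP-tagged ΔF508-CFTR at the cell surface, 15 min substrate in dark. Normalized as 100×(sample−DMSO)/(positive control−DMSO).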

Cc1nn(C2CCCCC2)c2nc(C(=O)NS(=O)(=O)C3CC3)cc(-c3ccc(N4CCOCC4)cc3)c12 [Compound 239, 1-cyclohexyl-N-(cyclopropanesulfonyl)-3-methyl-4-[4-(morpholin-4-yl)phenyl]-1H-pyrazolo[3,4-b]pyridine-6-carboxamide]
% Activation (ΔF508-CFTR [1]): 431.55% | EC50 (ΔF508-CFTR [1]): 1240 nM | % Activation (ΔF508-CFTR [2]): 184.6% | EC50 (ΔF508-CFTR [2]): 999 nM

COCC1CCN(c2cc(C(=O)NS(=O)(=O)c3cn[nH]c3)nc3c2c(C2CCC2)nn3-c2ccccc2)CC1 [Compound 253, 3-cyclobutyl-4-[4-(methoxymethyl)piperidin-1-yl]-1-phenyl-N-(1H-pyrazole-4-sulfonyl)-1H-pyrazolo[3,4-b]pyridine-6-carboxamide]
% Activation (ΔF508-CFTR [1]): 454.4% | EC50 (ΔF508-CFTR [1]): 251 nM | % Activation (ΔF508-CFTR [2]): 174.6% | EC50 (ΔF508-CFTR [2]): 676 nM

CC1(COc2cc(C(=O)NS(C)(=O)=O)nc3c2c(C2CCC2)nn3-c2ccccc2)COC1 [Compound 254, 3-cyclobutyl-N-(methanesulfonyl)-4-[(3-methyloxetan-3-yl)methoxy]-1-phenyl-1H-pyrazolo[3,4-b]pyridine-6-carboxamide]
% Activation (ΔF508-CFTR [1]): 312.1% | EC50 (ΔF508-CFTR [1]): 370 nM | % Activation (ΔF508-CFTR [2]): 117.5% | EC50 (ΔF508-CFTR [2]): 400 nM

COC1(CN2CCS(=O)(=O)CC2)CCN(c2cc(C(=O)NS(C)(=O)=O)nc3c2c(C2CCC2)nn3-c2ccccc2)CC1 [Compound 255, 3-cyclobutyl-4-{4-[(1,1-dioxo-1λ^6,4-thiazinan-4-yl)methyl]-4-methoxypiperidin-1-yl}-N-(methanesulfonyl)-1-phenyl-1H-pyrazolo[3,4-b]pyridine-6-carboxamide]
% Activation (ΔF508-CFTR [1]): 365.8% | EC50 (ΔF508-CFTR [1]): 3330 nM | % Activation (ΔF508-CFTR [2]): 122.3% | EC50 (ΔF508-CFTR [2]): 1880 nM

COCCS(=O)(=O)NC(=O)c1cc(N2CCC(COC)CC2)c2c(C3CCC3)nn(-c3ccccc3)c2n1 [Compound 256, 3-cyclobutyl-N-(2-methoxyethanesulfonyl)-4-[4-(methoxymethyl)piperidin-1-yl]-1-phenyl-1H-pyrazolo[3,4-b]pyridine-6-carboxamide]
% Activation (ΔF508-CFTR [1]): 508.63% | % Activation (ΔF508-CFTR [2]): 331.85%

CS(=O)(=O)NC(=O)c1cc(-c2ccc(N3CCC(C#N)CC3)nc2)c2c(n1)n(-c1ccccc1)nc2[C@H]1C[C@H](C)C1 [Compound 257, 4-[6-(4-cyanopiperidin-1-yl)pyridin-3-yl]-N-(methanesulfonyl)-3-(trans-3-methylcyclobutyl)-1-phenyl-1H-pyrazolo[3,4-b]pyridine-6-carboxamide]
% Activation (ΔF508-CFTR [1]): 451.25% | EC50 (ΔF508-CFTR [1]): 74.3 nM | % Activation (ΔF508-CFTR [2]): 272.4% | EC50 (ΔF508-CFTR [2]): 370 nM

CS(=O)(=O)NC(=O)c1cc(-c2ccc(N3CCC(C#N)CC3)nc2)c2c(OC3CCNCC3)nn(-c3ccccc3)c2n1 [Compound 258, 4-[6-(4-cyanopiperidin-1-yl)pyridin-3-yl]-N-(methanesulfonyl)-1-phenyl-3-[(piperidin-4-yl)oxy]-1H-pyrazolo[3,4-b]pyridine-6-carboxamide]
% Activation (ΔF508-CFTR [1]): 127.1% | EC50 (ΔF508-CFTR [1]): > 10000 nM | % Activation (ΔF508-CFTR [2]): 8.829% | EC50 (ΔF508-CFTR [2]): > 10000 nM

COCC1CCN(c2cc(C(=O)NS(=O)(=O)CCN3C(=O)c4ccccc4C3=O)nc3c2c(C2CCC2)nn3-c2ccccc2)CC1 [Compound 260, 3-cyclobutyl-N-[2-(1,3-dioxoisoindolin-2-yl)ethylsulfonyl]-4-[4-(methoxymethyl)-1-piperidyl]-1-phenyl-pyrazolo[3,4-b]pyridine-6-carboxamide]
% Activation (ΔF508-CFTR [1]): 664.07% | EC50 (ΔF508-CFTR [1]): 130 nM | % Activation (ΔF508-CFTR [2]): 473.35% | EC50 (ΔF508-CFTR [2]): 1870 nM

COCC1CCN(c2cc(C(=O)NS(=O)(=O)CCN)nc3c2c(C2CCC2)nn3-c2ccccc2)CC1 [Compound 261, N-(2-aminoethanesulfonyl)-3-cyclobutyl-4-[4-(methoxymethyl)piperidin-1-yl]-1-phenyl-1H-pyrazolo[3,4-b]pyridine-6-carboxamide]
% Activation (ΔF508-CFTR [1]): 129.3% | EC50 (ΔF508-CFTR [1]): > 10000 nM | % Activation (ΔF508-CFTR [2]): 26.85% | EC50 (ΔF508-CFTR [2]): > 10000 nM

COCC1CCN(c2cc(C(=O)NS(C)(=O)=O)nc3c2c(C(C)C)nn3CC2CCC2)CC1 [Compound 262, 1-(cyclobutylmethyl)-N-(methanesulfonyl)-4-[4-(methoxymethyl)piperidin-1-yl]-3-(propan-2-yl)-1H-pyrazolo[3,4-b]pyridine-6-carboxamide]
% Activation (ΔF508-CFTR [1]): 420.17% | EC50 (ΔF508-CFTR [1]): 523 nM | % Activation (ΔF508-CFTR [2]): 232.07% | EC50 (ΔF508-CFTR [2]): 598 nM

COCC1CCN(c2cc(C(=O)NS(C)(=O)=O)nc3c2c(C(C)C)nn3CC(C)C)CC1 [Compound 264, N-(methanesulfonyl)-4-[4-(methoxymethyl)piperidin-1-yl]-1-(2-methylpropyl)-3-(propan-2-yl)-1H-pyrazolo[3,4-b]pyridine-6-carboxamide]
% Activation (ΔF508-CFTR [1]): 478.6% | EC50 (ΔF508-CFTR [1]): 3330 nM | % Activation (ΔF508-CFTR [2]): 242.5% | EC50 (ΔF508-CFTR [2]): 969 nM

COCCS(=O)(=O)NC(=O)c1cc(N2CCC(COC)CC2)c2c(C(C)C)nn(CC(C)C)c2n1 [Compound 265, N-(2-methoxyethanesulfonyl)-4-[4-(methoxymethyl)piperidin-1-yl]-1-(2-methylpropyl)-3-(propan-2-yl)-1H-pyrazolo[3,4-b]pyridine-6-carboxamide]
% Activation (ΔF508-CFTR [1]): 427.8% | EC50 (ΔF508-CFTR [1]): 2140 nM | % Activation (ΔF508-CFTR [2]): 240.8% | EC50 (ΔF508-CFTR [2]): 3330 nM

CC(C)c1nn(-c2ccc(F)cc2)c2nc(C(=O)NS(C)(=O)=O)cc(N3CCN(CC(F)(F)F)CC3)c12 [Compound 266, 1-(4-fluorophenyl)-N-(methanesulfonyl)-3-(propan-2-yl)-4-[4-(2,2,2-trifluoroethyl)piperazin-1-yl]-1H-pyrazolo[3,4-b]pyridine-6-carboxamide]
% Activation (ΔF508-CFTR [1]): 328.87% | EC50 (ΔF508-CFTR [1]): 231 nM | % Activation (ΔF508-CFTR [2]): 161.5% | EC50 (ΔF508-CFTR [2]): 332 nM

COCC1CCN(c2cc(C(=O)NS(C)(=O)=O)nc3c2c(C(C)C)nn3-c2ccc(=O)n(C)n2)CC1 [Compound 268, N-(methanesulfonyl)-4-[4-(methoxymethyl)piperidin-1-yl]-1-(1-methyl-6-oxo-1,6-dihydropyridazin-3-yl)-3-(propan-2-yl)-1H-pyrazolo[3,4-b]pyridine-6-carboxamide]
% Activation (ΔF508-CFTR [1]): 122.05% | EC50 (ΔF508-CFTR [1]): > 10000 nM | % Activation (ΔF508-CFTR [2]): 5.213% | EC50 (ΔF508-CFTR [2]): > 10000 nM

COCCS(=O)(=O)NC(=O)c1cc(N2CCN(C(C)C)CC2)c2c(C3CCC3)nn(-c3ccccc3)c2n1 [Compound 271, 3-cyclobutyl-N-(2-methoxyethanesulfonyl)-1-phenyl-4-[4-(propan-2-yl)piperazin-1-yl]-1H-pyrazolo[3,4-b]pyridine-6-carboxamide]
% Activation (ΔF508-CFTR [1]): 260.47% | EC50 (ΔF508-CFTR [1]): 1020 nM | % Activation (ΔF508-CFTR [2]): 63.905% | EC50 (ΔF508-CFTR [2]): 1950 nM

COCCS(=O)(=O)NC(=O)c1cc(-c2ccc(N3CCC(C#N)CC3)nc2)c2c(OC3CCOC3)nn(-c3ccccc3)c2n1 (centres unmarked) [Compound 275, 4-[6-(4-cyanopiperidin-1-yl)pyridin-3-yl]-N-(2-methoxyethanesulfonyl)-3-[(oxolan-3-yl)oxy]-1-phenyl-1H-pyrazolo[3,4-b]pyridine-6-carboxamide]
% Activation (ΔF508-CFTR [1]): 269.85% | EC50 (ΔF508-CFTR [1]): 138 nM | % Activation (ΔF508-CFTR [2]): 138.8% | EC50 (ΔF508-CFTR [2]): 468 nM

COCCS(=O)(=O)NC(=O)c1cc(-c2ccc(N3CCC(C#N)CC3)nc2)c2c(n1)n(-c1ccccc1)nc2[C@H]1C[C@H](C)C1 [Compound 276, 4-[6-(4-cyanopiperidin-1-yl)pyridin-3-yl]-N-(2-methoxyethanesulfonyl)-3-(trans-3-methylcyclobutyl)-1-phenyl-1H-pyrazolo[3,4-b]pyridine-6-carboxamide]
% Activation (ΔF508-CFTR [1]): 417.25% | EC50 (ΔF508-CFTR [1]): 42.9 nM | % Activation (ΔF508-CFTR [2]): 356.7% | EC50 (ΔF508-CFTR [2]): 779 nM

CS(=O)(=O)NC(=O)c1cc(-c2ccc(N3CCC(C#N)CC3)nc2)c2c(OC3CCOC3)nn(-c3ccccc3)c2n1 (centres unmarked) [Compound 277, 4-[6-(4-cyanopiperidin-1-yl)pyridin-3-yl]-N-(methanesulfonyl)-3-[(oxolan-3-yl)oxy]-1-phenyl-1H-pyrazolo[3,4-b]pyridine-6-carboxamide]
% Activation (ΔF508-CFTR [1]): 355.4% | EC50 (ΔF508-CFTR [1]): 127 nM | % Activation (ΔF508-CFTR [2]): 155.4% | EC50 (ΔF508-CFTR [2]): 251 nM

CC(C)c1nn(-c2cccc(N(C)C)c2)c2nc(C(=O)NS(C)(=O)=O)cc(OCC3CCOCC3)c12 [Compound 278, 1-[3-(dimethylamino)phenyl]-N-(methanesulfonyl)-4-[(oxan-4-yl)methoxy]-3-(propan-2-yl)-1H-pyrazolo[3,4-b]pyridine-6-carboxamide]
% Activation (ΔF508-CFTR [1]): 388.5% | EC50 (ΔF508-CFTR [1]): 88.3 nM | % Activation (ΔF508-CFTR [2]): 233.7% | EC50 (ΔF508-CFTR [2]): 120 nM
